Experiments:
Galectin-3 [1] = target: Galectin-3 (Homo sapiens, UniProt P17931); experiment: Inhibition of human Galectin-3
Galectin-3 [2] = target: Galectin-3 (Mus musculus, UniProt P16110); experiment: Inhibition of mouse Galectin-3
[3] = Permeability of the compound at pH 5.5 incubated for 4 hrs by PAMPA based SpectraMax UV-plate reader analysis; type: ADME; details: read-out: permeability
[4] = Permeability of the compound at pH 7.4 incubated for 4 hrs by PAMPA based SpectraMax UV-plate reader analysis; type: ADME; details: read-out: permeability
[5] = Volume of distribution at steady state in mouse at 10 mg/kg,po administration; type: ADME, organism-based; details: in vivo
Galectin-1 = Galectin-1 (Homo sapiens, UniProt P09382); experiment: Inhibition of human Galectin-1
[6] = AUC in mouse at 10 mg/kg,po administration; type: ADME, organism-based; design: dose 10 mg/kg, route po; details: in vivo
Galectin-9 = Galectin-9 (Homo sapiens, UniProt O00182); experiment: Inhibition of human Galectin-9
[7] = Clearance in mouse at 10 mg/kg,po administration; type: ADME, organism-based; details: in vivo
[8] = Cmax in mouse at 10 mg/kg,po administration; type: ADME, organism-based; design: dose 10 mg/kg, route po; details: in vivo
[9] = Oral bioavailability in mouse at 10 mg/kg administration; type: ADME, organism-based; details: in vivo
Homo sapiens [10] = species on record: Homo sapiens; experiment: Selectivity ratio of IC50 for inhibition of human Galectin-1 to IC50 for inhibition of human Galectin-3
Homo sapiens [11] = species on record: Homo sapiens; experiment: Selectivity ratio of IC50 for inhibition of human Galectin-9 to IC50 for inhibition of human Galectin-3

Galectin-9, sequence (O00182 whole entry): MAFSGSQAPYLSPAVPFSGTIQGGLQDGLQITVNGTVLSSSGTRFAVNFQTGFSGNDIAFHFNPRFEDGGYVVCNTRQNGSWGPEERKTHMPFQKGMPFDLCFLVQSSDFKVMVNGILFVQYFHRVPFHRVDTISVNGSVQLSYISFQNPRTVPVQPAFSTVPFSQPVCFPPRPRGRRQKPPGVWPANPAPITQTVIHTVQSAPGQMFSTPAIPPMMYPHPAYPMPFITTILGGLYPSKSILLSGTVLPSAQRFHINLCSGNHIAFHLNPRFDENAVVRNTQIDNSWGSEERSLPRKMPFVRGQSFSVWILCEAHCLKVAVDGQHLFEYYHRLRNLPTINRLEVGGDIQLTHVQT
Galectin-3 (Homo sapiens, UniProt P17931), sequence (P17931 whole entry): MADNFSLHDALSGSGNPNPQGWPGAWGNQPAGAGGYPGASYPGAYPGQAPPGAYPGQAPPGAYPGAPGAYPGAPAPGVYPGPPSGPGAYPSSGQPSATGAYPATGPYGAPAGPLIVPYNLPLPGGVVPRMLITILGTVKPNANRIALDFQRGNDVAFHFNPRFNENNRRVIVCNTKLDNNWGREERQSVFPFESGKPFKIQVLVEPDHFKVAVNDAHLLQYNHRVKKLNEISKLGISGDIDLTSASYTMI
Galectin-3 (Mus musculus, UniProt P16110), sequence (P16110 whole entry): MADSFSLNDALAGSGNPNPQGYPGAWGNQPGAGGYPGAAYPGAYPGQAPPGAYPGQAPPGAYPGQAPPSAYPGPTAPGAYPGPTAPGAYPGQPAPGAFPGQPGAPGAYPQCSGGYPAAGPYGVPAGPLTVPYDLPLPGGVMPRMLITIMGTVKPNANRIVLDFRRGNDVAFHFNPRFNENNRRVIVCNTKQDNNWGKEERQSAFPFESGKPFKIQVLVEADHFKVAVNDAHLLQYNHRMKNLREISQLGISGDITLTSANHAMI
Galectin-1, sequence (P09382 whole entry): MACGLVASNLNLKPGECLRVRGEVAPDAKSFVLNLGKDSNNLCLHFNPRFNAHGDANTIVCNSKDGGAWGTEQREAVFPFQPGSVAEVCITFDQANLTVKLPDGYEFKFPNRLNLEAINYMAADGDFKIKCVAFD

| SMILES | IC50 (Galectin-3 [1]) | IC50 (Galectin-3 [2]) | Papp at 4 h [3] | Papp at 4 h [4] | further results |
| --- | --- | --- | --- | --- | --- |
| OC[C@H]1O[C@@H](c2ncnn2-c2ccc3ncsc3c2)[C@H](O)[C@@H](n2cc(-c3cc(F)c(F)c(F)c3)nn2)[C@H]1O | 0.037 µM | 0.939 µM |  |  |  |
| CO[C@@H]1[C@@H](n2cc(-c3ccc(Cl)c(F)c3F)nn2)[C@@H](O)[C@@H](CO)O[C@H]1c1nc(C)nn1-c1ccc2ncsc2c1 | 0.011 µM | 0.084 µM | 73.1 ×10⁻⁶ cm/s | 80.2 ×10⁻⁶ cm/s | Vdss [5]: 1.8 L/kg; IC50 (Galectin-1): 2.72 µM; AUC [6]: 14 µM·h; IC50 (Galectin-9): 3.53 µM; Ratio IC50 (Homo sapiens [10]): 247; CL/F [7]: 8 mL/min/kg; Ratio IC50 (Homo sapiens [11]): 321; Cmax [8]: 4300 nM; bioavailability [9]: 40% |
| CO[C@@H]1[C@@H](n2cc(-c3ccc(Br)c(F)c3F)nn2)[C@@H](O)[C@@H](CO)O[C@H]1c1nc(C)nn1-c1ccc2ncsc2c1 |  | 0.061 µM | 104 ×10⁻⁶ cm/s |  | IC50 (Galectin-1): 3.52 µM; AUC [6]: 8.7 µM·h; IC50 (Galectin-9): 2.42 µM; Ratio IC50 (Homo sapiens [10]): 271; Ratio IC50 (Homo sapiens [11]): 186; Cmax [8]: 1800 nM |
| Cc1nc([C@@H]2O[C@H](CO)[C@H](O)[C@H](n3cc(-c4cc(F)c5ccccc5c4)nn3)[C@H]2O)n(-c2ccc3ncsc3c2)n1 | 0.022 µM | 0.179 µM | 9 ×10⁻⁶ cm/s | 13.7 ×10⁻⁶ cm/s |  |
| Cc1nc([C@@H]2O[C@H](CO)[C@H](O)[C@H](n3cc(-c4cc(F)c(Br)c(F)c4)nn3)[C@H]2O)n(-c2ccc3ncsc3c2)n1 |  | 0.144 µM | 5.2 ×10⁻⁶ cm/s | 4.8 ×10⁻⁶ cm/s |  |
| Cc1nc([C@@H]2O[C@H](CO)[C@H](O)[C@H](n3cc(-c4ccc(Br)c(F)c4F)nn3)[C@H]2O)n(-c2ccc3ncsc3c2)n1 | 0.0072 µM | 0.045 µM | 30.7 ×10⁻⁶ cm/s | 30.1 ×10⁻⁶ cm/s | IC50 (Galectin-1): 2.6 µM; AUC [6]: 3 µM·h; IC50 (Galectin-9): 2.11 µM; Ratio IC50 (Homo sapiens [10]): 361; Ratio IC50 (Homo sapiens [11]): 293; Cmax [8]: 600 nM |
| Cc1nc([C@@H]2O[C@H](CO)[C@H](O)[C@H](n3cc(-c4ccc(Cl)c(F)c4F)nn3)[C@H]2O)n(-c2ccc3ncsc3c2)n1 | 0.0088 µM | 0.086 µM | 24.1 ×10⁻⁶ cm/s | 16.3 ×10⁻⁶ cm/s | IC50 (Galectin-1): 3.83 µM; IC50 (Galectin-9): 3.01 µM; Ratio IC50 (Homo sapiens [10]): 435; Ratio IC50 (Homo sapiens [11]): 342 |
| CO[C@@H]1[C@@H](n2cc(-c3cc(F)c(Cl)c(F)c3)nn2)[C@@H](O)[C@@H](CO)O[C@H]1c1nc(C)nn1-c1ccc2ncsc2c1 |  | 0.15 µM | 59.1 ×10⁻⁶ cm/s |  |  |
| CO[C@@H]1[C@@H](n2cc(-c3cc(F)c(Br)c(F)c3)nn2)[C@@H](O)[C@@H](CO)O[C@H]1c1nc(C)nn1-c1ccc2ncsc2c1 | 0.03 µM | 0.15 µM |  |  |  |
| Cc1nc([C@@H]2O[C@H](CO)[C@H](O)[C@H](n3cc(-c4cc(F)c(Cl)c(F)c4)nn3)[C@H]2O)n(-c2ccc3ncsc3c2)n1 | 0.018 µM | 0.151 µM | 10.4 ×10⁻⁶ cm/s |  |  |

Further lines, with some results ahead:

| IC50 (Galectin-3 [1]) | IC50 (Galectin-3 [2]) | Papp at 4 h [3] | Papp at 4 h [4] | SMILES | further results |
| --- | --- | --- | --- | --- | --- |
| 0.063 µM | 1.22 µM |  |  | Cc1nc2ccc(-n3ncnc3[C@@H]3O[C@H](CO)[C@H](O)[C@H](n4cc(-c5cc(F)c(F)c(F)c5)nn4)[C@H]3O)cc2s1 |  |
| 0.028 µM | 0.536 µM | 1.5 ×10⁻⁶ cm/s | 3.9 ×10⁻⁶ cm/s | Cc1nc([C@@H]2O[C@H](CO)[C@H](O)[C@H](n3cc(-c4cc(F)c(F)c(F)c4)nn3)[C@H]2O)n(-c2ccc3ncsc3c2)n1 |  |
|  | 2.51 µM | 29.8 ×10⁻⁶ cm/s | 18.6 ×10⁻⁶ cm/s | CO[C@@H]1[C@@H](n2cc(-c3cc(F)c(F)c(F)c3)nn2)[C@@H](O)[C@@H](CO)O[C@H]1C(=O)N(C)c1ccc2nc(C)sc2c1 |  |
|  | 0.169 µM | 29.4 ×10⁻⁶ cm/s | 29.5 ×10⁻⁶ cm/s | CO[C@H]1C(C(=O)N(C)c2ccc3ncsc3c2)O[C@H](CO)[C@H](O)[C@@H]1n1cc(-c2ccc(Cl)c(F)c2F)nn1 (single isomer, unassigned) | Vdss [5]: 2.1 L/kg; IC50 (Galectin-1): 1.58 µM; AUC [6]: 13 µM·h; IC50 (Galectin-9): 2.75 µM; CL/F [7]: 12 mL/min/kg; Cmax [8]: 3100 nM; bioavailability [9]: 52% |
| 0.052 µM | 1.2 µM |  |  | Cc1nc2cc(C)c(-n3ncnc3[C@@H]3O[C@H](CO)[C@H](O)[C@H](n4cc(-c5cc(F)c(F)c(F)c5)nn4)[C@H]3O)cc2s1 |  |
|  | 0.429 µM |  |  | CCN(C(=O)[C@@H]1O[C@H](CO)[C@H](O)[C@H](n2cc(-c3cc(F)c(Cl)c(F)c3)nn2)[C@H]1OC)c1ccc2ncsc2c1 |  |
|  | 3.51 µM | 1.9 ×10⁻⁶ cm/s | 0.8 ×10⁻⁶ cm/s | Cc1nc2ccc(N(C)C(=O)[C@@H]3O[C@H](CO)[C@H](O)[C@H](n4cc(-c5cc(F)c(F)c(F)c5)nn4)[C@H]3O)cc2s1 |  |
|  | 0.178 µM | 16 ×10⁻⁶ cm/s | 16.7 ×10⁻⁶ cm/s | CO[C@@H]1[C@@H](n2cc(-c3cc(F)c(Cl)c(F)c3)nn2)[C@@H](O)[C@@H](CO)O[C@H]1C(=O)N(C)c1ccc2ncsc2c1 |  |
| > 10 µM | > 30 µM |  |  | CO[C@@H]1[C@@H](n2cc(-c3cc(F)c(Cl)c(F)c3)nn2)[C@@H](O)[C@@H](CO)O[C@H]1C(=O)Nc1ccc2ncsc2c1 |  |
|  | 0.504 µM | 14.4 ×10⁻⁶ cm/s | 17.2 ×10⁻⁶ cm/s | CO[C@@H]1[C@@H](n2cc(-c3cc(F)c(F)c(F)c3)nn2)[C@@H](O)[C@@H](CO)O[C@H]1C(=O)N(C)c1ccc2ncsc2c1 | IC50 (Galectin-1): 3.25 µM; IC50 (Galectin-9): 9.97 µM |
| 0.071 µM | 1.31 µM |  |  | Cc1nc2cc(Cl)c(-n3ncnc3[C@@H]3O[C@H](CO)[C@H](O)[C@H](n4cc(-c5cc(F)c(F)c(F)c5)nn4)[C@H]3O)cc2s1 |  |
|  | 0.206 µM | 57.8 ×10⁻⁶ cm/s | 53.8 ×10⁻⁶ cm/s | CO[C@@H]1[C@@H](n2cc(-c3cc(F)c(Br)c(F)c3)nn2)[C@@H](O)[C@@H](CO)O[C@H]1C(=O)N(C)c1ccc2ncsc2c1 |  |
|  | 0.095 µM | 27.9 ×10⁻⁶ cm/s | 26.9 ×10⁻⁶ cm/s | CO[C@@H]1[C@@H](n2cc(-c3ccc(Br)c(F)c3F)nn2)[C@@H](O)[C@@H](CO)O[C@H]1C(=O)N(C)c1ccc2ncsc2c1 |  |

— ChEMBL document CHEMBL5335822, “Identification of benzothiazole derived monosaccharides as potent, selective, and orally bioavailable inhibitors of human and mouse galectin-3; a rare example of using a S···O binding interaction for drug design” (Bioorg Med Chem, 2024)
